Measurements: ChEMBL document CHEMBL4342494 (ACS Med Chem Lett, 2020)

How the values were obtained:
[1] = biological target: T1, D(2) dopamine receptor (Homo sapiens, UniProt P14416); assay: Agonist activity at D2 long receptor (unknown origin) transfected in human HEK293T cells assessed as increase in cAMP accumulation incubated for 2 hrs by cAMP Glo-sensor assay; format: functional, cell-based
[2] = biological target: T1, D(2) dopamine receptor
[3] = biological target: T2, D(1A) dopamine receptor (Homo sapiens, UniProt P21728); assay: Agonist activity at C-terminal RLuc8-fused D1R (unknown origin) transfected in human HEK293T cells co-expressing N-terminal Venus-tagged beta-arrestin2 assessed as increase in beta-arrestin2 recruitment measured after 5 mins in presence of coelenterazine H by BRET assay; format: cell-based
[4] = biological target: T2, D(1A) dopamine receptor; assay: Agonist activity at D1R (unknown origin) transfected in human HEK293T cells assessed as increase in cAMP accumulation incubated for 2 hrs by cAMP Glo-sensor assay; format: functional, cell-based
[5] = biological target: T1, D(2) dopamine receptor; remark: listed apart in the source
[6] = biological target: T2, D(1A) dopamine receptor

T2 sequence (P21728 whole entry, the tested form may be a part): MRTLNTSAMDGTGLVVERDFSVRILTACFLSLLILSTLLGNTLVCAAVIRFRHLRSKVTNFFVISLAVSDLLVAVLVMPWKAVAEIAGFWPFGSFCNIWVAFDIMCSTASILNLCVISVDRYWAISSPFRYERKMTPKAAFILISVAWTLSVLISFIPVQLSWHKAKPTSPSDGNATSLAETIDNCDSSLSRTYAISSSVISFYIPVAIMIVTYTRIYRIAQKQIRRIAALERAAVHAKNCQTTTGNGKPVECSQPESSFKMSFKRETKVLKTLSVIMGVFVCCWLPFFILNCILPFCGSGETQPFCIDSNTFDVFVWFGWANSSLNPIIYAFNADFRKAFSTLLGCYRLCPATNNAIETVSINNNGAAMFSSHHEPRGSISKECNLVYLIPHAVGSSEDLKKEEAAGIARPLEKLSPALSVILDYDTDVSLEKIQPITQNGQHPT
T1 sequence (P14416 whole entry): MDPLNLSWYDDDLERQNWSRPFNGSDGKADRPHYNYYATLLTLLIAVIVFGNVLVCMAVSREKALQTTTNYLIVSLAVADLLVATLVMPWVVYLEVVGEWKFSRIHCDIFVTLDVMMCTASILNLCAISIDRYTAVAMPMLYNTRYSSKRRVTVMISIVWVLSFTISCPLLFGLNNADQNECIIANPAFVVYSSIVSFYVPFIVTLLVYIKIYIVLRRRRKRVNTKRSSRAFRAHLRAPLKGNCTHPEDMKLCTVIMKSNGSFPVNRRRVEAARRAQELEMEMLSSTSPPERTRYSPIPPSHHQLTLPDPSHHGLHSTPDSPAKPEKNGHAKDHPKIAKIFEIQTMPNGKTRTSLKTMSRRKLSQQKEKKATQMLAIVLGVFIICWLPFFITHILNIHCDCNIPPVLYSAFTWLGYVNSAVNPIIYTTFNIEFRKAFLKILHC

Compound | EC50 ([1]; read-out: EC50) [nM] | EC50 ([1]; read-out: pEC50 (converted)) [nM] | EC50 [2] [nM] | EC50 ([3]; read-out: EC50) [nM] | EC50 ([3]; read-out: pEC50 (converted)) [nM] | EC50 ([4]; read-out: EC50) [nM] | log(Tau/KA) [5] | G-protein bias factor [6] | EC50 ([4]; read-out: pEC50 (converted)) [nM]
CC(=O)Oc1c(Cl)cc2c(c1OC(C)=O)-c1cccc3c1[C@@H](C2)N(C)CC3 | > 10000 | > 10000 | 604 | – | – | – | – | – | –
CN1CCc2cccc3c2[C@H]1Cc1ccc2c(c1-3)OCO2 | > 10000 | > 10000 | 102 | > 10000 | > 10000 | 112 | – | – | –
CN1CCc2cccc3c2[C@H]1Cc1ccc(O)c(O)c1-3 | – | – | – | – | – | – | 2.16 | 41.5 | –
CC(=O)Oc1c(Br)cc2c(c1OC(C)=O)-c1cccc3c1[C@@H](C2)N(C)CC3 | > 10000 | > 10000 | 1410 | – | – | – | – | – | –
CCc1cc2c(c(OC(C)=O)c1OC(C)=O)-c1cccc3c1[C@@H](C2)N(C)CC3 | – | – | – | 0.38 | – | 1550 | – | – | –
CCCN1CCc2cccc3c2[C@H]1Cc1ccc(O)c(O)c1-3 | – | – | – | – | – | – | 0.85 | 19.3 | –
CC(=O)Oc1c(C(C)C)cc2c(c1OC(C)=O)-c1cccc3c1[C@@H](C2)N(C)CC3 | > 10000 | > 10000 | > 10000 | > 10000 | > 10000 | 951 | – | – | –
COCOc1ccc2c(c1OCOC)-c1cccc3c1[C@@H](C2)N(C)CC3 | – | – | – | 8.45 | – | > 10000 | – | – | –
COc1cccc(-c2cc3c(c(OC(C)=O)c2OC(C)=O)-c2cccc4c2[C@@H](C3)N(C)CC4)c1 | > 10000 | > 10000 | – | 41.4 | – | 669 | – | – | 661
